Key:
Assay type in all cases: in vivo, mouse
[1] = PK analysis 2 hours post-therapy, Example A (blood and tissue levels); conditions: mean; for BM level 2 hr post-therapy: BM levels to be taken with caution
Protocol: 2 hours after last dose for Compound A;
2 hours after last dose for Compound B; • Spleen weight is recorded at sacrifice. • Samples collected and snap frozen in liquid nitrogen and then kept at −80° C. until analysis: • spleen, BM, blood and liver for PK analysis • spleen for PD marker analysis (p-STATS (Compound A) and protein acetylation (Compound B)), • sternum for PD marker analysis (p-STATS (Compound A).
Concentrations of Compound A and Compound B in plasma and tissues were determined simultaneously by an UPLC/MS-MS assay. Tissues were homogenized in an equal volume of HPLC-Water (Water for chromatography, Merck) using the Fast Prep®-24 system (M.P. Biomedicals, Irvine, Calif., USA). Following addition of 25 μl of internal standard mixture (1 μg/ml) to analytical aliquots (25 μl) of blood or tissues homogenate, the proteins were precipitated by the addition of 200 μl acetonitrile. The supernatant were transferred in a fresh vial. After evaporation to dryness the samples were re-dissolved in 60 μl acetonitrile/water (1/1 v/v). An aliquot (5 μl) of this solution was separated on a ACQUITY UPLC BEH C18 column (Waters™ 1.7 μm particle size, 2.1×50 mm) with a mobile phase consisting of a mixture of 0.1% formic acid in water (solvent A) and 0.1% formic acid in acetonitrile (solvent B). Gradient programming was used with a flow rate of 600 μl/min. After equilibration with 95% solvent A, 5 μl of sample was injected. Following a latency period of 0.25 min., the sample was eluted with a linear gradient of 5-100% solvent B over a period of 0.65 minutes followed by a 0.35 min. hold. The column was prepared for the next sample by re-equilibrating over 0.25 min. to the starting conditions. The column eluent was directly introduced into the ion source of the triple quadrupole mass spectrometer TQDTM (Waters Corporation, Milford, Mass., USA) controlled by Masslynx™ 4.1 software. Electrospray positive ionization (ESI+) multiple reaction monitoring was used for the MS/MS detection of the analyte. Precursor to product ion transition of 307.0→m/z 186.0 for Compound A was used. Simultaneously precursor to product ion transition of 350.1→m/z 142.9 for Compound B was recorded. The limit of quantification (LOQ) for both compounds was set to 9 ng/ml and 9 ng/g for plasma and tissues, respectively (CV and overall bias less than 30%). Regression analysis and further calculations were performed using QuanLynx™ 4.1 (Micromass) and Excel™ 2007 (Microsoft). Concentrations of unknown samples were back-calculated based on the peak area ratios of analyte/IS from a calibration curve constructed using calibration samples spiked in blank blood or tissue obtained from animals treated with vehicle.

[2] = test system: JAK2V617F bone marrow transduced cells; assay: Histology of bone marrow and spleen (cellularity, splenic architecture, reticulin fibrosis) in JAK2V617F bone marrow transplant model; conditions: 21 days; for Bone marrow hypercellularity / Splenic architecture: Compound B 8 mg/kg, Compound A 60 mg/kg or both; for Bone marrow hypercellularity: rank Combo>Compound A=Compound B; for Splenic architecture: rank Combo>Compound A>Compound B
Excerpt: and spleens were collected, fixed in formalin, trimmed, embedded in paraffin and sectioned at (nominally) 4 μm using a microtome. […] Briefly, the spleen was removed in total, weighed and placed on a dissection tray. The spleen was cut transverse in two halves and two equal pieces were taken from the middle parts using a scalpel. […] Baker, Medite, Switzerland). Fixative volume was at least tenfold in excess compared to tissue volume. […] After a last wash in PBS, the tissues were cut up and set with the surface of interest downwards in a universal histocassette followed by processing in a TPC 15Duo (Tissue Processing Center) for paraffinization. From each tissue paraffin block, several 3 μm thick sections were cut on a sliding or rotary microtome (Mikrom International AG, Switzerland), spread in a 45° C. water-bath, mounted on microscope slides (Polysine, VWR International, Leuven, Belgium), and air-dried in an oven at 37° C. overnight. Dry tissue section slides were taken out of the oven and placed in the slide rack of the linear stainer COT20 (Medite, Switzerland) for fully automated H&E (Haematoxylin &Eosin) staining or processed for immunohistochemistry (IHC) staining. For IHC, tissue section samples were stained with rabbit anti-phospho STAT5 antibody (clone C11C5), and rabbit anti-acetyl Histone H3 antibody (Millipore, MA, USA) coverslipped and air-dried. […] Splenic architecture was evaluated as destroyed (1+) or preserved (0). Presence of myeloid, erythroid and adipocytes cells was evaluated as 0, 1+, 2+, 3+ based on cellularity. […] Whole slide automated quantitative assessment of p-STAT5-positive and -negative cell nuclei were performed using Definiens eCognition software (eCognition version XD 1.5, Definiens AG, Germany). The results were expressed as percent of positive p-STAT5 nuclei out of total nuclei.

Acetylated Histone H3 = assay: PD marker acetylated histone H3 by IHC in spleen and bone marrow; conditions: Compound B 8 mg/kg alone or with Compound A 60 mg/kg
Excerpt: Briefly, the spleen was removed in total, weighed and placed on a dissection tray. The spleen was cut transverse in two halves and two equal pieces were taken from the middle parts using a scalpel. […] Baker, Medite, Switzerland). Fixative volume was at least tenfold in excess compared to tissue volume. […] After a last wash in PBS, the tissues were cut up and set with the surface of interest downwards in a universal histocassette followed by processing in a TPC 15Duo (Tissue Processing Center) for paraffinization. From each tissue paraffin block, several 3 μm thick sections were cut on a sliding or rotary microtome (Mikrom International AG, Switzerland), spread in a 45° C. water-bath, mounted on microscope slides (Polysine, VWR International, Leuven, Belgium), and air-dried in an oven at 37° C. overnight. […] Splenic architecture was evaluated as destroyed (1+) or preserved (0). Presence of myeloid, erythroid and adipocytes cells was evaluated as 0, 1+, 2+, 3+ based on cellularity. […] Whole slide automated quantitative assessment of p-STAT5-positive and -negative cell nuclei were performed using Definiens eCognition software (eCognition version XD 1.5, Definiens AG, Germany). The results were expressed as percent of positive p-STAT5 nuclei out of total nuclei.

[3] = treatment Compound A 60 mg/kg + Compound B 4 mg/kg
[4] = treatment Compound A 60 mg/kg + Compound B 8 mg/kg
[5] = treatment Compound A 60 mg/kg + Compound B 12 mg/kg

Structure (SMILES)	Blood level 2 hr post-therapy [1, 3] [nM]	Liver level 2 hr post-therapy [1, 3]	Spleen level 2 hr post-therapy [1, 3]	BM level 2 hr post-therapy [1, 3]	Blood level 2 hr post-therapy [1, 4] [nM]	Liver level 2 hr post-therapy [1, 4] [nmol/g]	Spleen level 2 hr post-therapy [1, 4] [nmol/g]	BM level 2 hr post-therapy [1, 4] [nmol/g]	Blood level 2 hr post-therapy [1, 5] [nM]	Liver level 2 hr post-therapy [1, 5] [nmol/g]	Spleen level 2 hr post-therapy [1, 5] [nmol/g]	BM level 2 hr post-therapy [1, 5] [nmol/g]	Bone marrow hypercellularity [2]	Splenic architecture [2]	also measured
N#CC[C@H](C1CCCC1)n1cc(-c2ncnc3[nH]ccc23)cn1 [Compound A, (R)-3-(4-(7H-pyrrolo[2,3-d]pyrimidin-4-yl)-1H-pyrazol-1-yl)-3-cyclopentylpropanenitrile]	2780	3.49 + nmol/g	1.15 + nmol/g	2.59 + nmol/g	2230	2.91	1.02	1.92	2720	3.87	1.61	2.29	decrease	improved	Blood level 2 hr post-therapy ([1]; treatment Compound A 60 mg/kg): 1960 nM; Liver level 2 hr post-therapy ([1]; treatment Compound A 60 mg/kg): 4.54 nmol/g; Spleen level 2 hr post-therapy ([1]; treatment Compound A 60 mg/kg): 1.28 nmol/g; BM level 2 hr post-therapy ([1]; treatment Compound A 60 mg/kg): 1.40 + nmol/g; Fibrosis score (reticulin staining on sternum sections) ([2]; Compound A 60 mg/kg or combination with Compound B 8 mg/kg, high variability): tendency to reduce
Cc1[nH]c2ccccc2c1CCNCc1ccc(/C=C/C(=O)NO)cc1 [Compound B, N-hydroxy-3-[4-[[[2-(2-methyl-1H-indol-3-yl)-ethyl]-amino]methyl]phenyl]-2E-2-propenamide]	20	0.30 + nmol/g	2.80 + nmol/g	6.15 + nmol/g	30	0.32	3.02	8.43	20	0.71	4.51	9.81	decrease	improved	Acetylated histone H3 (IHC), surrogate readout for deacetylase inhibition (Acetylated Histone H3): clear increase; Blood level 2 hr post-therapy ([1]; treatment Compound B 4 mg/kg): BLQ; Liver level 2 hr post-therapy ([1]; treatment Compound B 4 mg/kg): 0.18 nmol/g; Spleen level 2 hr post-therapy ([1]; treatment Compound B 4 mg/kg): 1.40 nmol/g; BM level 2 hr post-therapy ([1]; treatment Compound B 4 mg/kg): 3.34 nmol/g; Blood level 2 hr post-therapy ([1]; treatment Compound B 8 mg/kg): BLQ; Liver level 2 hr post-therapy ([1]; treatment Compound B 8 mg/kg): 0.25 nmol/g; Spleen level 2 hr post-therapy ([1]; treatment Compound B 8 mg/kg): 2.07 nmol/g; BM level 2 hr post-therapy ([1]; treatment Compound B 8 mg/kg): 3.17 nmol/g; Blood level 2 hr post-therapy ([1]; treatment Compound B 12 mg/kg): BLQ; Liver level 2 hr post-therapy ([1]; treatment Compound B 12 mg/kg): 0.63 nmol/g; Spleen level 2 hr post-therapy ([1]; treatment Compound B 12 mg/kg): 3.64 nmol/g; BM level 2 hr post-therapy ([1]; treatment Compound B 12 mg/kg): 7.32 nmol/g

Reference: patent US20180085371A1, “COMBINATION OF PANOBINOSTAT AND RUXOLITINIB IN THE TREATMENT OF CANCER SUCH AS A MYELOPROLIFERATIVE NEOPLASM” (Novartis AG, priority 2011, published 2018)
